Earlier results as cited in US10813957B2, “Engineered oncolytic viruses containing hyper-binding sites to sequester and suppress activity of oncogenic transcription factors as a novel treatment for human cancer” (priority 2016, dated 2020).

Details: background statement

For NC(=O)OC[C@H]1c2c(O)cc(C=O)cc2N2CC3N[C@@H]3[C@]1(O)O2 (stereo partly shown) [FR900482], the toxicity in humans is listed as “high toxicity”.
